This is an account of results in a melting point compilation (Tetko et al.; mined from patent text by program, amines drawn as free bases though some values may be those of a salt).

Each structure is given as a SMILES string.

For orientation: melting point means the temperature, or range, at which the solid turns liquid.

In turn, `O=C(c1ccccc1)c1ccc(OC(=O)C2CCCCC2)cc1` registered a melting point of 111 to 112 °C.
To `COC(=O)CCSc1ccc(C=C(C)c2ccc3c(c2)C(C)(C)CCC3(C)C)cc1` belongs 90 to 92 °C; to `C#Cc1ccc(N)nc1`, 143 °C.
In turn, `CC1C(=O)N(Oc2ccc(F)cc2F)Cc2ccc(NC3CCOCC3)nc21` (centres undefined) gave a melting point of 238 to 239 °C.
`CCOC(=O)Cc1ccc2c(c1)C(O)c1ccccc1O2` (centres undefined) had a melting point of 214 to 219 °C.
`CCCCNC(=O)NS(=O)(=O)c1cccc2c1nnn2C`: the melting point was 170 to 173 °C.
As for `COc1ccc(CSc2cc(Cl)ccc2CN(C)C)cc1`, the melting point lay in the range of 66 to 68 °C.
`CC(Cc1c[nH]c2ccccc12)NC(=O)Oc1ccccc1` (centres undefined): the melting point is 89 to 92 °C.
The compound `O=C(Nc1cccc([N+](=O)[O-])c1)NC1C(=O)N(CC23CC4CC(CC(C4)C2)C3)c2ccccc2N(c2ccccc2)C1=O` (centres undefined) had a melting point of 213 to 215 °C.
To `CCOC(=O)C(=O)c1ccc(OCCOc2ccc3ccccc3c2)s1` belongs 98 to 100 °C; to `Cc1c([N+](=O)[O-])oc2ccc(-c3ccc(CC(=O)O)cc3)cc12`, 229 to 230 °C; to `O=C(Nc1nc(C(Cl)(Cl)Cl)ns1)c1cccc([N+](=O)[O-])c1`, 198 °C.
In turn, `Cc1ccc2cccc(OCc3c(Cl)ccc(S(=O)(=O)N4CCCC4C(=O)NCCCCCO)c3Cl)c2n1` (centres undefined) yielded a melting point of 64 °C.
For the compound `O=C(O)C(O)c1cccnc1` (centres undefined), the melting point was found to be 140 °C.
To `COc1cc(C2CCN(C(=O)CN)CC2)ccc1Nc1ncc2ccc(-c3ccccc3OC)n2n1` belongs 86 to 99 °C; to `CS(=O)(=O)c1ccc(-c2sc(-c3ccccc3)nc2-c2ccc(F)cc2)cc1`, 188 to 189 °C; to `COc1cccc(CCc2c(C(=O)O)ccc(OC)c2OC)c1`, 156 to 158 °C.
To `CC1CCC(N(CC2CCC(CN(C(=O)Nc3ccc(N4CCCC4)cc3)C3CCC(C)CC3)CC2)C(=O)Nc2ccc(N3CCCC3)cc2)CC1` (centres undefined) belongs 149 to 155 °C.
The figure for `O=c1[nH]c2c(c3nc(-c4ccccc4Cl)nn13)CN(Cc1ccccc1)CC2` is 295 to 296 °C.
In the case of `COCCOC1c2ccn3c(Br)c(C)nc3c2N(C(C)=O)C(c2ccccc2)C1OC(=O)C(C)(C)C` (centres undefined), the melting point lay within 166 to 167 °C.
The figure for `Cc1ccc(NC(=O)c2ccc(CN(C)C)c(C(F)(F)F)c2)cc1Br` is 169 to 172 °C; for `Cc1c(NCCCN2CCN(c3ccccc3O)CC2)n(C)c(=O)n(C)c1=O` it is 203 to 205 °C.
To `CC(C)c1ccc2c(c1)c(-c1ccccc1Cl)c(NC(=O)Nc1ccc(F)cc1F)c(=O)n2C` belongs 152 to 156 °C; to `C=CCC1(CCNC(=O)C2CCC2)c2cc(OC)ccc2CCC12OCCO2` (centres undefined), 99 to 101 °C.
To `O=C(NCc1ccc(/C=C/C(c2cc(Cl)c(Cl)c(Cl)c2)C(F)(F)F)cc1Cl)C(=O)NCC(F)(F)F` (centres undefined) belongs 161 to 163 °C; to `O=C(O)c1ccc(-c2ccc(C(F)(F)F)cc2)s1`, 227 °C; to `O=C(Nc1ccc(F)cc1)N1CCc2cc(S(=O)(=O)N3CCN(c4cccc(Cl)c4)CC3)ccc21`, 192 to 194 °C.
Compound `COC1(c2ccc(Sc3ccc4c(c3)OCC(=O)N4C)s2)CCOCC1` had a melting point of 65 to 69 °C.
Consider `CCCCCCCCOc1ccc(-c2cnc(C(=O)O)c(C(=O)O)n2)cc1`, for which the melting point was determined as 163 °C.
The figure for `CCOC(=O)c1ccc(/C=C(\C)c2ccc3c(c2)C(C)(C)CC3(C)C)cc1` is 70 to 71 °C; for `CCCn1c(COC)nc2c(N)nc3ccc(OCCCOC(=O)N4CCOCC4)cc3c21` it is 173 to 174 °C; for `CC1NC(=O)NN=C1c1ccc(S)cc1` (centres undefined) it is 202 to 204 °C.
For `Cc1nc(N)nc(O)c1I`, the melting point stood at 212 °C.
To `O=S(=O)(NCCCO)c1c(Cl)cc(Cl)cc1Cl` belongs 104 to 106 °C.
